Results as given in patent publication US20250179047A1, “5-[7-(3,4-DIHYDRO-1H-ISOQUINOLINE-2-CARBONYL)-1,2,3,4 TETRAHYDROISOQUINOLIN-6-YL]-1H-PYRROLE-3-CARBOXAMIDE DERIVATIVES, PHARMACEUTICAL COMPOSITIONS CONTAINING THEM AND THEIR USES AS PRO-APOPTOTIC AGENTS” (LES LABORATOIRES SERVIER, priority 2022, published 2025).
Read-outs that look alike come from different tables or passages of the source.

What was measured:
BCLXL WT = BCLXL WT (Homo sapiens (Human), UniProt Q07817); experiment: TR-FRET competitive binding assay, BCLXL WT; conditions: for Ki: BCLXL WT, Ki determined from IC50, read-out: TR_FRET EKI BclxL; for TR_FRET EKI BCLxL/WT selectivty ratio: ratio Ki BCLxL / Ki BCL2 WT; for TR_FRET EKI BCLxL/WT selectivty: ratio of Ki BCLxL to BCL2 WT
Method: (§1) The relative binding potency of each compound was determined in a competitive binding assay using time resolved-fluorescence resonance energy transfer (TR-FRET). The method utilised a fluorescein labelled peptide derived from PUMA (5Flu-Ahx-[…]-NH2 wherein Ahx means 6-hexanoic acid monomer and the amino acid sequence is referred to as SEQ ID:01) which binds to a terbium labelled BCL2 or BCLXL protein. The degree of binding or corresponding compound inhibition can be quantified by the TR-FRET signal between the terbium donor and fluorescein acceptor.
(§2) The human BCL2_wild-type (also named BCL2_wt), BCL2_G101V mutant and BCLXL_wild-type were E. coli expressed as a N-terminal Halo-fusion proteins and singly labelled with Terbium on the Halo protein to afford the following amino acid sequences:
(§3) wherein the BCL2(1-207) sequence corresponds to UniProtKB® primary accession number P10415 and the BCLXL(2-196) sequence corresponds to UniProtKB® primary accession number Q07817-1.
(§4) The assay was performed in a 40 μL volume in white 384-standard well plates (Corning #3574). An 11-point serial dilution of each compound was prepared in DMSO and transferred directly to plate followed by addition of fluorescein labelled peptide and lastly protein. Final assay conditions were 0.5 nM BCL2_wt, BCL2_G101V, BCL2_D103Y, BCL2_F104I, BCL2_D111A or BCLXL_wt, 2 or 20 nM fluorescein labelled peptide, 50 mM Hepes pH 7.5, 150 mM NaCl, 0.5 mM TCEP (Tris(2-carboxyethyl)phosphine), 0.05% Tween 20, 5% DMSO. The mixture was incubated for 2 hours at 23° C.
(§5) TR-FRET measurements were performed on a Biotek Synergy Neo plate reader. TR-FRET was measured by excitation of the Terbium-donor at 340 nm and subsequent (delay time 100 μs) measurement of terbium and fluorescein emission at 495 nm and 520 nm, respectively, over a collection time of 300 μs. The TR-FRET signal was calculated as the emission-ratio at 520 nm over 495 nm.
(§6) The TR-FRET ratio readout for test compounds was normalized against 0% inhibition controls wells and 100% inhibition control wells. Test compound potency (IC50) was estimated by nonlinear regression using the sigmoidal dose-response (variable slope) using Xlfit 4 (IDBS, Guildford, Surrey, UK, model 205). Were the IC50 could not be determined the % inhibition at the highest tested concentration is given.
(§7) y=(A+((B−A)/(1+((C/x)^D))))
(§8) where y is the normalized TR-TRET ratio measurement for a given concentration of test compound, x is the concentration of test compound, A is the estimated efficacy (% inhibition) at infinite compound dilution, and B is the maximal efficacy (% inhibition). C is the IC50 value and D is the Hill slope coefficient.
(§9) The K1 values were determined from the IC50 values according to Cer et al, Nucleic Acids Res, 2009, July 1; 37 (WebServer issue): W441-W445.

BCL2 D103Y = BCL2 D103Y (Homo sapiens, UniProt P10415, D103Y); experiment: TR-FRET competitive binding assay, BCL2 D103Y; conditions: Ki determined from IC50, read-out: TR_FRET EKI_Bcl2 D103Y
Method: as §1, §2, §3, §4, §5, §6, §7, §8, §9

BCL2 WT = BCL2 WT (Homo sapiens (Human), UniProt P10415); experiment: TR-FRET competitive binding assay, BCL2 WT
Method: as §1, §2, §3, §4, §5, §6, §7, §8, §9

BCL2 G101V [1] = molecular target: BCL2 G101V (Homo sapiens, UniProt P10415, G101V); experiment: TR-FRET competitive binding assay, BCL2 G101V; conditions: BCL2 G101V; Ki determined from IC50; read-out: TR_FRET EKI_Bcl2 G101V
Method: as §1, §2, §3, §4, §5, §6, §7, §8, §9

BCL2 G101V [2] = experiment: TR-FRET competitive binding assay, BCL2 G101V; set-up: species or system human; conditions: for TR_FRET EKI G101V/WT selectivty ratio: ratio Ki BCL2 G101V / Ki BCL2 WT; for TR_FRET EKI G101V/WT selectivty: ratio of Ki BCL2 G101V to BCL2 WT
Method: as §1, §2, §3, §4, §5, §6, §7, §8, §9

KMS-12-PE Bcl-2 G101V = experiment: In vitro cytotoxicity CellTiter-Glo 48 h, KMS-12-PE Bcl-2 G101V; assay type: cell-based
Method: (§10) KMS-12-PE (ACC 606) were purchased from the Leibniz-Institute DSMZ (Braunschweig, Germany) and were grown at 37° C. in a humidified atmosphere with […] in media recommended by the suppliers. Lentiviral particles containing Bcl-2 wild type (also named “Bcl2 WT”) and Bcl-2 mutated on G101V (also named “Bcl2 G101V”) were cloned into pcLV-CMV-DEST-IRES-TagRFP. Lentiviral particles (1×106) were mixed with Polybrene at 8 µg/ml and transduced by spinoculation for 1 h at 32° C. and incubated overnight. After 8 days, TagRFP positive-cells were sorted by FACS. BCL2 expression was monitored by immunoblotting using anti-Flag and anti-BCL2 antibodies.
(§11) Cellular viability was monitored with the cell viability assay (CellTiter-Glo®) on KMS-12-PE WT and G101V cell lines. The CellTiter-Glo® (CTG) Luminescent Cell Viability Assay (from Promega) is a homogeneous method to determine the number of viable cells in culture based on quantitation of the ATP present, which signals the presence of metabolically active cells.
(§12) Dose response of compounds are performed with 10 mM stock solutions (DMSO), 11-points curve, in a 384-well compound plate. The assay plate is prepared by stamping 40 nL from compound dilution plate of all different concentrations (e.g. 10 mM to have final […] assay test) into a cell culture microplate, using Echo acoustic liquid handling (Labcyte, Beckman). 40 μl of cell solution is added and cells are incubated with compounds for 48 h at 37° C., 5% CO2. CTG was added to the cells (according to the manufacturer instructions) and luminescence intensity was recorded using the Pherastar plate reader (BMG).
(§13) This assay provides in vitro cellular potency of the tested Bcl-2 inhibitors, measuring the C50, defined as the concentration needed to reach 50% of the cellular viability.

KMS-12-PE Bcl-2 WT = experiment: In vitro cytotoxicity CellTiter-Glo 48 h, KMS-12-PE Bcl-2 WT; assay type: cell-based; conditions: Homo sapiens, KMS-12-PE, C50 = concentration needed to reach 50% of the cellular viability
Method: as §10, §11, §12, §13

[3] = Ki determined from IC50, read-out: TR_FRET EKI_Bcl2 WT
[4] = Ki determined from IC50, read-out: TR_FRET EKI_Bcl2

Sequence of BCLXL WT (Q07817 other isoform, or with tags, fused parts or gaps): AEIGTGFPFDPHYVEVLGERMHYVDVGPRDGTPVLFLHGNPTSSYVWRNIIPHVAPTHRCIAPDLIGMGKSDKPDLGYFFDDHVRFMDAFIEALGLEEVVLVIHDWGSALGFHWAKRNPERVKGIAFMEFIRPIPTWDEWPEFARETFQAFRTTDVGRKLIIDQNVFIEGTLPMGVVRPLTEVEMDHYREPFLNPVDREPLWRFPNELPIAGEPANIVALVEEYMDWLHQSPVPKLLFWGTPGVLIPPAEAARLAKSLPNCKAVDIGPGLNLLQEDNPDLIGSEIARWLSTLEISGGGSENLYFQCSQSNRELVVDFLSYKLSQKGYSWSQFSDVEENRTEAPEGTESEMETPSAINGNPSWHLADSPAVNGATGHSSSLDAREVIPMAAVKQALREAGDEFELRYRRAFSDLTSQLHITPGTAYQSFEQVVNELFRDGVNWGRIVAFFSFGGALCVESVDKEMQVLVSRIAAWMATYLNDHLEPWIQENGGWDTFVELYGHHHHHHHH

SMILES	Ki (BCLXL WT)	TR_FRET EKI BCLxL/WT selectivty ratio (BCLXL WT)	Ki (BCL2 D103Y)	Ki (BCL2 WT; [3])	Ki (BCL2 G101V [1])	TR_FRET EKI G101V/WT selectivty ratio (BCL2 G101V [2])	Ratio (G101V/WT) (KMS-12-PE Bcl-2 G101V; C50 KMS-12-PE Bcl-2 G101V over C50 KMS-12-PE Bcl-2 WT)	IC50 (KMS-12-PE Bcl-2 G101V; Homo sapiens, KMS-12-PE, 48 h, CellTiter-Glo, C50 = concentration needed to reach 50% of the cellular viability)	IC50 (KMS-12-PE Bcl-2 WT)	TR_FRET EKI BCLxL/WT selectivty (BCLXL WT)	Ki (BCL2 WT; [4])	TR_FRET EKI G101V/WT selectivty (BCL2 G101V [2])
Cc1c(N(C(=O)c2cc(-c3cc4c(cc3C(=O)N3Cc5ccccc5C[C@H]3C)CN(C(=O)C(F)(F)c3ccc(N5CCN(C)CC5)cc3)CC4)n(C)c2C)c2ccc(O)cc2)cc(C#N)n1C [Example 26, N-(5-cyano-1,2-dimethylpyrrol-3-yl)-5-(2-{2,2-difluoro-2-[4-(4-methylpiperazin-1-yl)phenyl]acetyl}-7-{[(3R)-3-methyl-3,4-dihydro-1H-isoquinolin-2-yl]carbonyl}-3,4-dihydro-1H-isoquinolin-6-yl)-N-(4-hydroxyphenyl)-1,2-dimethylpyrrole-3-carboxamide]	23200 pM	21.1	830 pM	1100 pM	5300 pM	4.8						
Cc1c(N(C(=O)c2cc(-c3cc4c(cc3C(=O)N3Cc5ccccc5C[C@H]3CN3CCC[C@@H]3C)CN(C(=O)Cc3ccc(OCCN5CCOCC5)cc3F)CC4)n(C)c2C)c2ccc(O)cc2)cc(C#N)n1C [Example 173, N-(5-cyano-1,2-dimethylpyrrol-3-yl)-5-[2-(2-{2-fluoro-4-[2-(morpholin-4-yl)ethoxy]phenyl}acetyl)-7-{[(3S)-3-{[(2S)-2-methylpyrrolidin-1-yl]methyl}-3,4-dihydro-1H-isoquinolin-2-yl]carbonyl}-3,4-dihydro-1H-isoquinolin-6-yl]-N-(4-hydroxyphenyl)-1,2-dimethylpyrrole-3-carboxamide]	4000 pM	133.3	120 pM	30 pM	300 pM		5.5095	0.0465 µM	0.0084 µM			
Cc1c(N(C(=O)c2cc(-c3cc4c(cc3C(=O)N3Cc5ccccc5C[C@H]3CN3CCCCC3)CN(C(=O)C(F)(F)c3ccc(OCCN5CCOCC5)cc3)CC4)n(C)c2C)c2ccc(O)cc2)cc(C#N)n1C [Example 178, N-(5-cyano-1,2-dimethyl-pyrrol-3-yl)-5-[2-[2,2-difluoro-2-[4-(2-morpholinoethoxy)phenyl]acetyl]-7-[(3S)-3-(1-piperidylmethyl)-3,4-dihydro-1H-isoquinoline-2-carbonyl]-3,4-dihydro-1H-isoquinolin-6-yl]-N-(4-hydroxyphenyl)-1,2-dimethyl-pyrrole-3-carboxamide]	11900 pM	137.8	160 pM	90 pM	1300 pM	15.3			0.0109 µM			
Cc1c(C(=O)N(c2ccc(O)cc2)c2cc(C#N)n(C(F)F)c2C)cc(-c2cc3c(cc2C(=O)N2Cc4ccccc4C[C@H]2CN2CC4(CCC4)C2)CN(C(=O)Cc2ccc(OCCC4CCOCC4)cc2)CC3)n1C [Example 180, 5-[7-[(3S)-3-(2-azaspiro[3.3]heptan-2-ylmethyl)-3,4-dihydro-1H-isoquinoline-2-carbonyl]-2-[2-[4-(2-tetrahydropyran-4-ylethoxy)phenyl]acetyl]-3,4-dihydro-1H-isoquinolin-6-yl]-N-[5-cyano-1-(difluoromethyl)-2-methyl-pyrrol-3-yl]-N-(4-hydroxyphenyl)-1,2-dimethyl-pyrrole-3-carboxamide]	17200 pM	252.5	150 pM	70 pM	300 pM	4.5			0.0078 µM			
Cc1cc(OCCN2CCOCC2)c(F)cc1CC(=O)N1CCc2cc(-c3cc(C(=O)N(c4ccc(O)cc4)c4cc(C#N)n(C)c4C)c(C)n3C)c(C(=O)N3Cc4ccccc4C[C@H]3CN3CCCCC3)cc2C1 [Example 223, N-(5-cyano-1,2-dimethyl-pyrrol-3-yl)-5-[2-[2-[5-fluoro-2-methyl-4-(2-morpholinoethoxy)phenyl]acetyl]-7-[(3S)-3-(1-piperidylmethyl)-3,4-dihydro-1H-isoquinoline-2-carbonyl]-3,4-dihydro-1H-isoquinolin-6-yl]-N-(4-hydroxyphenyl)-1,2-dimethyl-pyrrole-3-carboxamide]	4300 pM	24.6	260 pM	180 pM	1600 pM	9.3						
Cc1cc(OCCN2CCOCC2)c(F)cc1CC(=O)N1CCc2cc(-c3cc(C(=O)N(c4ccc(O)cc4)c4cc(C#N)n(C)c4C)c(C)n3C)c(C(=O)N3Cc4ccccc4C[C@H]3C)cc2C1 [Example 224, N-(5-cyano-1,2-dimethyl-pyrrol-3-yl)-5-[2-[2-[5-fluoro-2-methyl-4-(2-morpholinoethoxy)phenyl]acetyl]-7-[(3R)-3-methyl-3,4-dihydro-1H-isoquinoline-2-carbonyl]-3,4-dihydro-1H-isoquinolin-6-yl]-N-(4-hydroxyphenyl)-1,2-dimethyl-pyrrole-3-carboxamide]	1300 pM		180 pM		800 pM					17.7	73 pM	10.5
Cc1cc(OCCN2CCOCC2)c(F)cc1CC(=O)N1CCc2cc(-c3cc(C(=O)N(c4ccccc4)c4cnn(C)c4)c(C)n3C)c(C(=O)N3Cc4ccccc4C[C@H]3C)cc2C1 [Example 225, 5-[2-[2-[5-fluoro-2-methyl-4-(2-morpholinoethoxy)phenyl]acetyl]-7-[(3R)-3-methyl-3,4-dihydro-1H-isoquinoline-2-carbonyl]-3,4-dihydro-1H-isoquinolin-6-yl]-1,2-dimethyl-N-(1-methylpyrazol-4-yl)-N-phenyl-pyrrole-3-carboxamide]	23600 pM		140 pM		25600 pM					214.3	110 pM	233.0
